Our source for the IC50 values is publication PMC3973950, “Synthesis of 5-arylidine amino-1,3,4-thiadiazol-2-[(N-substituted benzyol)]sulphonamides endowed with potent antioxidants and anticancer activity induces growth inhibition in HEK293, BT474 and NCI-H226 cells” (Medicinal Chemistry Research, 2013).

What all share (type): biochemical
A short description of test [1]: Total antioxidant activity (ABTS radical cation scavenging). Particulars: Conc. ± SD; three independent experiments in duplicate; standard trolox; read-out: IC50 inhibitory concentration, ABTS^+ radical. The protocol:
The ability of the test sample to scavenge 2,2′-azinobis-(3-ethylbenzothiazoline-6-sulphonic acid) (ABTS^·+) radical cation was compared with 6-hydroxy-2,5,7,8-tetramethylchroman-2-carboxylic acid (trolox) standard (Chang et al., [2007]; Erel, [2004]; Re et al., [1999]). The ABTS^·+ radical cation was pregenerated by mixing ABTS stock solution (7 mM) with potassium persulphate (2.45 mM) (final concentration) and incubating for 12–16 h in the dark at room temperature until the reaction was complete and the absorbance was stable. The absorbance of the ABTS^·+ solution was equilibrated to 0.70 (±0.02) by diluting with water at room temperature, then 1 mL of solution was mixed with 10 μL of the test sample (0.05–10 mg/mL), and the absorbance was measured at 734 nm after 6 min. All experiments were repeated three times. The percentage inhibition of absorbance was calculated and plotted as a function of the concentration of standard and sample to determine the trolox equivalent antioxidant concentration (TEAC). To calculate the TEAC, the gradient of the plot for the sample was divided by the gradient of the plot for trolox. The IC50 inhibitory concentration (nM/mL) values of tested compounds are depicted in Table 1. The ABTS^·+ radical scavenging activity of the samples was expressed as S%=[(Acontrol-Asample)/Acontrol]×100 where A control is the absorbance of the blank control (ABTS^·+ solution without test sample), and A sample is the absorbance of the test sample.

Test [2] in a line: DPPH radical scavenging activity. To be noted: Conc. ± SD; standard ascorbic acid; read-out: IC50 inhibitory concentration, DPPH radical. Here is the method:
Compounds of SC series were evaluated for their in vitro free radical scavenging activities by 2,2-diphenyl-1-picrylhydrazyl (DPPH) assay method (Blois, [1958]; Shishoo et al., [1999]; Chhajed et al., [2007]). To determine the free radical scavenging activity, a method based on the reduction of a methanolic solution of the coloured DPPH radical was used. To a set of test tubes containing methanol (3 mL), DPPH reagent (2 mg/mL) (50 μL) was added. The initial absorbance was measured. To these test tubes, methanolic solution of different test solutions (1 mg/mL) were added (10–50 μL). Ascorbic acid (0.5 mg/mL) was also added in the concentration of 10, 20, 30, 40, 50 and 100 μL. After 20 min, absorbance was recorded at 516 nm. The experiment was performed in triplicate. The percentage reduction in absorbance was calculated from the initial and final absorbance of each solution (Dhar and Taploo, [1982]).

Test [3] in a line: Lipid peroxidation inhibitory activity (egg lecithin liposomes, TBA). Particulars: Conc. ± SD; standard ascorbic acid; read-out: IC50 inhibitory concentration, Lipid peroxidation. The protocol: Egg lecithin (3 mg/mL phosphate buffer, pH 7.4) was sonicated in an ultrasonic sonicator for 10 min to ensure proper liposome formation. Test samples or standard, ascorbic acid (100 μL) of different concentrations (10, 20, 30, 40 50 and 100 μg/mL) was added to liposome mixture (1 mL); the control was without test sample. Lipid peroxidation was induced by adding ferric chloride (10 μL, 400 mM) and L-ascorbic acid (10 μL, 200 mM). After incubation for 1 h at 37 °C, the reaction was stopped by adding hydrochloric acid (2 mL, 0.25 N) containing trichloroacetic acid (150 mg/mL), thiobarbituric acid (3.75 mg/mL) and butylated hydroxy anisole (0.50 mg/mL). The reaction mixture was subsequently boiled for 15 min, cooled and centrifuged at 1,000 rpm for 15 min, and the absorbance of the supernatant was measured at 532 nm (Duh and Yen, [1997]). The % inhibition at different concentrations was calculated by the following formula %Inhibition=[1-(Vt/Vc)]×100 where V t = mean absorption of test compound, V c = mean absorption of control.
The IC50 (nM/mL) value was derived from the % inhibition at different concentrations.

Test [4] in a line: Superoxide anion radical scavenging (NBT/NADH/PMS). Particulars: Conc. ± SD; standard catechin; read-out: IC50 inhibitory concentration, Superoxide anion. Here is the method: Measurement of superoxide anion scavenging activity of the synthesized compound was taken based on the method described by Nishimiki et al. ([1972]) and slightly modified. […] The reaction mixture was incubated at 25 °C for 5 min, and the absorbance at 560 nm was measured against blank samples. Catechin was used as reference compound. All the experiments were performed in triplicate, and the results were averaged. The percentage of inhibition was determined by comparing the results of control and test samples. The IC50 (nM/mL) value are depicted in Table 1.

On to `Cc1c(C)c2c(c(C)c1O)CCC(C)(C(=O)O)O2` (stereo not shown) [trolox, 6-hydroxy-2,5,7,8-tetramethylchroman-2-carboxylic acid, reference compound], for which, in test [1], the IC50 turned out to be 84.5 ± 9.39 µM. In the case of `O=C1O[C@H]([C@@H](O)CO)C(O)=C1O` [ascorbic acid, reference compound], the IC50 amounted to 187 ± 35.4 µM in test [2] and 150 ± 16.9 µM in test [3]. Regarding `Oc1cc(O)c2c(c1)O[C@H](c1ccc(O)c(O)c1)[C@@H](O)C2` [catechin, reference compound], in test [4], the IC50 is 171 ± 9.1 µM.
